The structures appear in SMILES notation.

In test [1] the test system is more than 70 cancer cell lines. Kind of test: Growth inhibition across cancer cell lines (GI50). Format: cell-based. Conditions: read-out: median concentration to achieve 50% growth inhibition (GI50); across more than 70 cancer cell lines.
For the next test, the system named is SH-SY5Y and SK-N-BE(2)c. Kind of test: Cell cycle analysis (PI, flow cytometry), cancer cells. In kind it is cell-based, human. Conditions: 500 nM. As to the method: (§1) FIGS. 3A-3D. Therapeutic properties of AOH1996. FIG. 3A: Normal cells (7SM0032) or cancer cells (SH-SY5Y and SK-N-BE(2)c) cells were fixed, stained with PI, and analyzed by flow cytometry following treatment with 500 nM AOH1996 for the indicated time. FIG. 3B: SK-N-DZ neuroblastoma cells and nonmalignant 7SM0032 stem cells were incubated with 500 nM AOH1996 for 24 h. Then, after being fixed on slides, cell apoptosis were analyzed by a TUNEL assay. Left: TMR fluorophore attached to the free ends of DNA indicates cells undergoing apoptosis. DAPI stained nuclei also shown. Right: Average abundance ±S.D. of apoptotic 7SM0032 (black histogram) and SK-N-DZ (grey histogram) cells relative to the total number of cells are shown in 5 randomly selected fields. FIG. 3C: Human SK-N-DZ neuroblastoma cells were treated with or without the indicated concentrations of cisplatin in the absence or presence of 500 nM of AOH1996 for 18 hours. […] The relative number of colonies determined in triplicates for each treatment condition were averaged and graphed ±SDs (*, P<0.01). […] Cell growth was measured as the percentage of cell confluence by imaging every 6 h for a total of 48 h.
Cell Cycle Analysis. […] PI fluorescence intensity of the cells was measured by flow cytometry and the data was analyzed using the FlowJo program.
For orientation: A flow cytometer gives signals particle by particle.

Test [2] has as its system SK-N-DZ neuroblastoma cells. Put plainly: Apoptosis (sub-G1, TUNEL assay), cancer cells. Format: cell-based, human. The following applies: 500 nM, 24 h. The protocol:
as §1, with “fields.” for “fields. FIG. 3C: Human SK-N-DZ neuroblastoma cells were treated with or without the indicated concentrations of cisplatin in the absence or presence of 500 nM of AOH1996 for 18 hours.”
Cell apoptosis was measured on a chamber slide at a seeding density of 1×10^5/mL. After treatment with 500 nM AOH1996 for 24 h, cells were fixed and analyzed by a TUNEL assay using the TMR red in situ cell death detection kit (Roche Diagnostics).

Test [3] has as its system SK-N-AS derived xenograft tumors. Kind of test: Survival of mice bearing xenograft tumors, AOH1996 with CPT-11. In kind it is in vivo, ES1^e/SCID mice. The following applies: AOH1996 80 mg/kg oral 8 d; CPT-11 15 mg/kg i.p. 3 d; vs untreated. The protocol:
FIGS. 4A-4H. Pharmacokinetics and anti-tumor growth activity of AOH1996 in vivo. FIG. 4A: After oral administration, the plasma concentrations of AOH1996 from three male and three female ES1^e/SCID mice at the indicated time points were averaged and graphed ±S.D. The inset contains PK parameters determined by a standard noncompartmental method. FIG. 4B: A similar PK study of AOH1996 was performed in dogs. FIGS. 4C-4E: Mice bearing the xenograft tumors of neuroblastoma (FIG. 4C: SK-N-BE(2)c), breast cancer (FIG. 4D: MDA-MB-468), and small-cell lung cancer (FIG. 4E: H82) were given vehicle only (black) or 40 mg/kg of AOH1996 (grey) twice daily immediately after the first measurement. Tumor sizes were measured by a dial caliper each week. Tumor volumes (0.4×L×W^2) were averaged and graphed ±S.E. (*, P<0.01). FIG. 4F: Animal body weight was monitored throughout the studies as an indicator of toxicity. […] FIG. 4G: The levels of phosphor-Chk1 (pChk1) and γH2A.X in SK-N-BE(2)c derived tumor samples were analyzed by IHC. […] The p values determined by the Log-rank (Mantel-Cox) test between combination treatment and each of the control groups are p=0.0003 (Combination vs. NoRx), p=0.005 (Combination vs. AOH1996 alone), and p=0.024 (Combination vs. CPT-11 alone). […]
In vivo tumor model. […] Tumor size and animal weight were measured weekly. […]

The subject of test [4] is SK-N-AS cells homozygous of the Y418A mutant RPB1 alleles. Put plainly: Growth of RPB1 Y418A (APIM) mutant cell lines. Format: cell-based, human. Conditions: 72 hrs; vs parent SK-N-AS.

In the case of `COc1cccc(Oc2ccccc2NC(=O)CNC(=O)c2cccc3ccccc23)c1` [AOH1996, N-(2-((2-(3-methoxyphenoxy)phenyl)amino)-2-oxoethyl)-1-naphthamide], in test [1], the GI50 is approximately 0.3 µM. In the test with SH-SY5Y and SK-N-BE(2)c, the “change in cell-cycle profile” value is given as “G2/M and/or S phase arrest in cancer cells”. For the same compound, the “apoptosis (sub-G1 population, TUNEL positivity)” value in test [2] is reported as “induced apoptosis”. Moreover, in test [3], the “increase of median survival” value is approximately 11.5%. Also, in test [4], the “sensitivity of RPB1 Y418A mutant cells to growth inhibition” value is reported as “significantly less sensitive to growth inhibition by AOH1996 than the parent cells”.
